Measurements as given in patent US7276511B2, “Benzylamine derivative” (Zeria Pharmaceutical Co., Ltd., priority 2003, dated 2007).
Counter-ions that a name gives are not always drawn.

Molecular target: NK-1 receptor (Homo sapiens, UniProt P25103)
Experiment: NK-1 receptor-binding test ([3H]-Substance P, hNK1-CHO cells)
Parameters: expressed in transfected cells; host or cells: CHO-K1 cells (ATCC: CCL-61), G418-resistant, hNK1-CHO
Conditions: not given
Procedure: 1. NK-1 Receptor-binding Test
1) Preparation of Human NK-1 Receptor Expression Cells
FuGene 6 transfection reagent (Boegringer Mannheim) (3 μL) was diluted in an F-12 culture broth (97 μL), and pCR3.1 plasmid to which human NK-1 receptor cDNA had been introduced (Invitrogen) (10 μL) was added thereto. The mixture was mixed and incubated for 15 minutes (transfection reagent). CHO-K1 cells (ATCC: CCL-61) were cultured for 24 hours, and the whole reagent prepared above was added to the cultured CHO-K1 cells ([…]). Subsequently, culture was performed in the presence of G418 (Stratagene), and the resistant cells were employed as cells into which human NK-1 receptor gene was introduced (hNK1-CHO).
2) Subcultivation of hNK1-CHO Cells
The hNK1-CHO cells were treated with trypsin-EDTA and subcultivated in an F-12 culture broth (containing 10% fetal bovine serum, 10 mM HEPES, 100 U/mL, penicillin, 100 μg/mL streptmycin, 400 μg/mL G418) in a 75-cm^2 flask (FALCON). Cells to be employed in the receptor-binding experiment were added to a 24-well plate (IWAKI) at 1×10^5 cells/well, and subcultured for 48 hours at 37° C. under 95% […] and 5% CO2.
3) Receptor-binding Experiment
When the hNK1-CHO cells became subconfluent on the 24-well plate, an F-12 culture broth (containing 10 mM HEPES and 0.1% fetal bovine serum) (450 μL), [^3H]-Substance P (Amersham, final concentration 0.5 nM), and a test compound were added to the cells, and the mixture was incubated for 40 minutes at 37° C. For the measurement of non-specific binding, L703606 (Sigma) was added instead of the test compound. After completion of incubation, the mixture was washed with ice-cooled phosphate buffered saline containing 0.1% fetal bovine serum, and the cells were lysed with 1N NaOH (0.5 mL). The lysate was transfered to a plastic vial containing UltimaGold MV (5 mL), and the radioactivity was determined by means of a liquid liquid scintillation counter (Packard, 2000CA).
Percent radioactive ligand-receptor binding inhibition of each test compound was calculated by use of the following equation, and IC50 (nM) was determined through pseudo-Hill analysis.
Percent inhibition (%)=[1−(C−A)/(B−A)]×100
A: Radioactivity attributed to non-specific binding
B: Radioactivity without test compound
C: Radioactivity with test compound

NK-1 receptor, sequence (P25103 whole entry): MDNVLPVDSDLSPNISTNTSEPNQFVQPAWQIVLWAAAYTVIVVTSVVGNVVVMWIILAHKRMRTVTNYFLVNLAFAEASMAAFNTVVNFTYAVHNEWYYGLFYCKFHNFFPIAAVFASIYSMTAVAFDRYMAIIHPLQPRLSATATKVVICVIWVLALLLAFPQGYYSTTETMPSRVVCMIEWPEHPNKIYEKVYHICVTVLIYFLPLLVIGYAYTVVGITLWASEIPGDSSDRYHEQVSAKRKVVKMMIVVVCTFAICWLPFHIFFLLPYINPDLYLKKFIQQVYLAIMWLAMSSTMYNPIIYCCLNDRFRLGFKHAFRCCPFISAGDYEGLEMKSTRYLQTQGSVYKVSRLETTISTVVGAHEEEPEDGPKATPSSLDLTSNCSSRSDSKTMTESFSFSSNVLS

| Structure (SMILES) | IC50 [nM] |
| --- | --- |
| CN(C[C@](CCCN1CCC2(CC1)c1ccccc1C[S@+]2[O-])(c1ccc(Cl)c(Cl)c1)N(C)C(=O)Oc1ccc(Cl)cc1)C(=O)CC(F)(F)F [Compound No. 633, 4-chlorophenyl(1-(3,3,3-trifluoro-N-methylpropanamido)-2-(S)-(3,4-dichlorophenyl)-5-[spiro(benzo(c)thiophene-(2S)-oxido-1(3H),4′-piperidin)-1′-yl]pentan-2-yl}methylcarbamate hydrochloride] | 8.3 |
| CN(C[C@](CCCN1CCC2(CC1)c1ccccc1C[S@+]2[O-])(c1ccc(Cl)c(Cl)c1)N(C)C(=O)Oc1cccc(F)c1)C(=O)CC(F)(F)F [Compound No. 634, 3-fluorophenyl{1-(3,3,3-trifluoro-N-methylpropanamido)-2-(S)-(3,4-dichlorophenyl)-5-[spiro(benzo(c)thiophene-(2S)-oxido-1(3H),4′-piperidin)-1′-yl]pentan-2-yl}methylcarbamate hydrochloride] | 2 |
| COc1ccccc1OC(=O)N(C)[C@](CCCN1CCC2(CC1)c1ccccc1C[S@+]2[O-])(CN(C)C(=O)CC(F)(F)F)c1ccc(Cl)c(Cl)c1 [Compound No. 636, 2-methoxyphenyl{1-(3,3,3-trifluoro-N-methylpropanamido)-2-(S)-(3,4-dichlorophenyl)-5-[spiro(benzo(c)thiophene-(2S)-oxido-1(3H),4′-piperidin)-1′-yl]pentan-2-yl}methylcarbamate hydrochloride] | 0.9 |
| COc1cccc(OC(=O)N(C)[C@](CCCN2CCC3(CC2)c2ccccc2C[S@+]3[O-])(CN(C)C(=O)CC(F)(F)F)c2ccc(Cl)c(Cl)c2)c1 [Compound No. 637, 3-methoxyphenyl{1-(3,3,3-trifluoro-N-methylpropanamido)-2-(S)-(3,4-dichlorophenyl)-5-[spiro(benzo(c)thiophene-(2S)-oxido-1(3H), 41-piperidin)-1′-yl]pentan-2-yl}methylcarbamate hydrochloride] | 1.7 |
| CN(C[C@](CCCN1CCC2(CC1)c1ccccc1C[S@+]2[O-])(c1ccc(Cl)c(Cl)c1)N(C)C(=O)Oc1ccccc1F)C(=O)CC(F)(F)F [Compound No. 638, 2-fluorophenyl{1-(3,3,3-trifluoro-N-methylpropanamido)-2-(S)-(3,4-dichlorophenyl)-5-[spiro(benzo(c)thiophene-(2S)-oxido-1(3H),4′-piperidin)-1′-yl]pentan-2-yl}methylcarbamate hydrochloride] | 6 |
| CN(C[C@](CCCN1CCC2(CC1)c1ccccc1C[S@+]2[O-])(c1ccc(Cl)c(Cl)c1)N(C)C(=O)Oc1ccc(F)cc1)C(=O)CC(F)(F)F [Compound No. 639, 4-fluorophenyl{1-(3,3,3-trifluoro-N-methylpropanamido)-2-(S)-(3,4-dichlorophenyl)-5-[spiro(benzo(c)thiophene-(2S)-oxido-1(3H),4′-piperidin)-1′-yl]pentan-2-yl}methylcarbamate hydrochloride] | 4 |
| COc1ccc(OC(=O)N(C)[C@](CCCN2CCC3(CC2)c2ccccc2C[S@+]3[O-])(CN(C)C(=O)CC(F)(F)F)c2ccc(Cl)c(Cl)c2)cc1 [Compound No. 640, 4-methoxyphenyl{1-(3,3,3-trifluoro-N-methylpropanamido)-2-(s)-(3,4-dichlorophenyl)-5-[spiro(benzo(c)thiophene-(2S)-oxido-1(3H),4′-piperidin)-1′-yl]pentan-2-yl}methylcarbamate hydrochloride] | 6 |
| CN(C[C@](CCCN1CCC2(CC1)c1ccccc1C[S@+]2[O-])(c1ccc(Cl)c(Cl)c1)N(C)C(=O)Oc1ccccc1)C(=O)C(F)(F)F [Compound No. 642, phenyl{1-(2,2,2-trifluoro-N-methylacetamide)-2-(S)-(3,4-dichlorophenyl)-5-[spiro(benzo(c)thiophene-(2S)-oxido-1(3H),4′-piperidin)-1′-yl]pentan-2-yl}methylcarbamate hydrochloride] | 3.7 |
| Cc1ccc(OC(=O)N(C)[C@](CCCN2CCC3(CC2)c2ccccc2C[S@+]3[O-])(CN(C)C(=O)CC(F)(F)F)c2ccc(Cl)c(Cl)c2)cc1 [Compound No. 652, 4-tolyl{1-(3,3,3-trifluoro-N-methylpropanamido)-2-(S)-(3,4-dichlorophenyl)-5-[spiro(benzo(c)thiophene-(2S)-oxido-1(3H),4′-piperidin)-1′-yl]pentan-2-yl}methylcarbamate hydrochloride] | 2.7 |
| CN(C[C@](CCCN1CCC2(CC1)c1ccccc1C[S@+]2[O-])(c1ccc(Cl)c(Cl)c1)N(C)C(=O)Oc1cccc(Cl)c1Cl)C(=O)CC(F)(F)F [Compound No. 653, 2,3-dichlorophenyl{1-(3,3,3-trifluoro-N-methylpropanamido)-2-(S)-(3,4-dichlorophenyl)-5-[spiro(benzo(c)thiophene-(2S)-oxido-1(3H),4′-piperidin)-1′-yl]pentan-2-yl}methylcarbamate hydrochloride] | 1.6 |
| CN(C[C@](CCCN1CCC2(CC1)c1ccccc1C[S@+]2[O-])(c1ccc(Cl)c(Cl)c1)N(C)C(=O)Oc1ccc(Cl)c(Cl)c1)C(=O)CC(F)(F)F [Compound No. 654, 3,4-dichlorophenyl{1-(3,3,3-trifluoro-N-methylpropanamido)-2-(S)-(3,4-dichlorophenyl)-5-[spiro(benzo(c)thiophene-(2S)-oxido-1(3H),4′-piperidin)-1′-yl]pentan-2-yl}methylcarbamate hydrochloride] | 3 |
| CN(C[C@](CCCN1CCC2(CC1)c1ccccc1C[S@+]2[O-])(c1ccc(Cl)c(Cl)c1)N(C)C(=O)Oc1ccc(F)c(F)c1)C(=O)CC(F)(F)F [compound 655, 3,4-difluorophenyl{1-(3,3,3-trifluoro-N-methylpropanamido)-2-(S)-(3,4-dichlorophenyl)-5-[spiro(benzo(c)thiophene-(2S)-oxido-1(3H),4′-piperidin)-1′-yl]pentan-2-yl}methylcarbamate hydrochloride] | 1.3 |

Same assay, conditions: Table 2; inhibition of [3H]-Substance P (0.5 nM) binding to hNK1-CHO cells, pseudo-Hill analysis; read-out: NK-1

| IC50 [nM] | Structure (SMILES) |
| --- | --- |
| 0.58 | COc1cc(COC[C@](CCCN2CCC3(CC2)c2ccccc2C[S@+]3[O-])(c2ccc(Cl)c(Cl)c2)N(C)C(=O)Nc2cccc(F)c2)cc(OC)c1OC [Compound No. 615, 1-{1-(3,4,5-trimethoxybenzyloxy)-2-(S)-(3,4-dichlorophenyl)-5-[spiro(benzo(c)thiophene-(2S)-oxido-1(3H),4′-piperidin)-1′-yl]pentan-2-yl}-3-(3-fluorophenyl)-1-methylurea hydrochloride] |
| 2 | COc1cc(COC[C@](CCCN2CCC3(CC2)c2ccccc2C[S@+]3[O-])(c2ccc(Cl)c(Cl)c2)N(C)C(=O)Nc2cccc(C(F)(F)F)c2)cc(OC)c1OC [Compound No. 616, 1-{1-(3,4,5-trimethoxybenzyloxy)-2-(S)-(3,4-dichlorophenyl)-5-[spiro(benzo(c)thiophene-(2S)-oxido-1(3H),4′-piperidin)-1′-yl]pentan-2-yl}-3-[3-(trifluoromethyl)phenyl]-1-methylurea hydrochloride] |
| 0.54 | COc1cc(COC[C@](CCCN2CCC3(CC2)c2ccccc2C[S@+]3[O-])(c2ccc(Cl)c(Cl)c2)N(C)C(=O)NCc2ccccc2F)cc(OC)c1OC [Compound No. 617, 1-{1-(3,4,5-trimethoxybenzyloxy)-2-(S)-(3,4-dichlorophenyl)-5-[spiro(benzo(c)thiophene(2S)-oxido-1(3H),4′-piperidin)-1′-yl]pentan-2-yl}-3-(2-fluorobenzyl)-1-methylurea hydrochloride] |
| 1.2 | COc1cc(COC[C@](CCCN2CCC3(CC2)c2ccccc2C[S@+]3[O-])(c2ccc(Cl)c(Cl)c2)N(C)C(=O)NCc2cccc(F)c2)cc(OC)c1OC [Compound No. 618, 1-{1-(3,4,5-trimethoxybenzyloxy)-2-(S)-(3,4-dichlorophenyl)-5-[spiro(benzo(c)thiophene(2S)-oxido-1(3H),4′-piperidin)-1′-yl]pentan-2-yl}-3-(3-fluorobenzyl)-1-methylurea hydrochloride] |
| 0.94 | COc1cc(COC[C@](CCCN2CCC3(CC2)c2ccccc2C[S@+]3[O-])(c2ccc(Cl)c(Cl)c2)N(C)C(=O)NCc2ccc(F)cc2)cc(OC)c1OC [Compound No. 621, 1-{1-(3,4,5-trimethoxybenzyloxy)-2-(S)-(3,4-dichlorophenyl)-5-[spiro(benzo(c)thiophene(2S)-oxido-1(3H),4′-piperidin)-1′-yl]pentan-2-yl}-3-(4-fluorobenzyl)-1-methylurea hydrochloride] |
